Test results taken from publication PMC10178562, “Synthesis and Characterisation of Fluorescent Novel Pt(II) Cyclometallated Complexes with Anticancer Activity” (International Journal of Molecular Sciences, 2023).

Experiments:
SJ-G2 Glioblastoma = assay: MTT cytotoxicity SJ-G2; assay type: cell-based; conditions: read-out: GI50 Concentration That Inhibits Cell Growth by 50%, 72 h
Description: (§1) Cytotoxicity assay studies were performed at Calvary Mater Newcastle Hospital, Waratah, NSW, Australia. In vitro studies were performed according to described methods. Complexes were prepared in DMSO as stock treatment (30 mM) solutions and stored at −20 °C. All cell lines were cultured in a humidified atmosphere with 5% CO2 at 37 °C and maintained in Dulbecco’s modified eagle’s medium (DMEM; Trace Biosciences, Melbourne, Australia) supplemented with 10% foetal bovine serum, sodium bicarbonate (10 mM), penicillin (100 IU mL^−1), streptomycin (100 μg mL^−1), and L-glutamine (4 mM). The non-cancer MCF10A cell line was cultured in DMEM.F12 (1:1) cell culture media (Composition in SI). Cytotoxicity was determined by plating cells in duplicate in 100 μL medium at a density of 2500–4000 cells per well in 96-well plates. After 24 h, when cells were in logarithmic growth, media (100 μL) with or without the test agent were added to each well (day 0). After 72 h of exposure, growth inhibitory effects were evaluated by MTT (3-[4,5-dimethylthiazol-2-yl]-2,5-diphenyltetrazolium bromide) assay, and absorbance was read at 540 nm. […] These calculations were based on the difference between the optical density values on day 0 and those at the end of drug exposure.

A431 Skin = assay: MTT cytotoxicity A431; assay type: cell-based; conditions: read-out: GI50 Concentration That Inhibits Cell Growth by 50%, 72 h
Description: as §1

A2780 Ovarian = assay: MTT cytotoxicity A2780; assay type: cell-based; conditions: read-out: GI50 Concentration That Inhibits Cell Growth by 50%, 72 h
Description: as §1

U87 Glioblastoma = assay: MTT cytotoxicity U87; assay type: cell-based; conditions: read-out: GI50 Concentration That Inhibits Cell Growth by 50%, 72 h
Description: as §1

Du145 Prostate = assay: MTT cytotoxicity Du145; assay type: cell-based; conditions: read-out: GI50 Concentration That Inhibits Cell Growth by 50%, 72 h
Description: as §1

H460 Lung = assay: MTT cytotoxicity H460; assay type: cell-based; conditions: read-out: GI50 Concentration That Inhibits Cell Growth by 50%, 72 h
Description: as §1

BE2-C Neuroblastoma = assay: MTT cytotoxicity BE2-C; assay type: cell-based; conditions: read-out: GI50 Concentration That Inhibits Cell Growth by 50%, 72 h
Description: as §1

MCF-7 Breast = assay: MTT cytotoxicity MCF-7; assay type: cell-based; conditions: for GI50: read-out: GI50 Concentration That Inhibits Cell Growth by 50%, MCF-7 Breast, 72 h, MTT
Description: as §1

MIA Pancreas = assay: MTT cytotoxicity MIA; assay type: cell-based; conditions: read-out: GI50 Concentration That Inhibits Cell Growth by 50%, 72 h
Description: as §1

HT29 Colon = assay: MTT cytotoxicity HT29; assay type: cell-based; conditions: read-out: GI50 Concentration That Inhibits Cell Growth by 50%, 72 h
Description: as §1

MCF10A Breast (normal) = assay: MTT cytotoxicity MCF10A (non-cancer); assay type: cell-based; conditions: read-out: GI50 Concentration That Inhibits Cell Growth by 50%, 72 h
Description: as §1

calf thymus DNA (ctDNA) [1] = assay: Direct ctDNA binding by inherent fluorescence (Benesi–Hildebrand); conditions: inherent fluorescence method, 10 µM CMC, buffer pH 7.0
Description: ctDNA experiments utilising the inherent fluorescence of the complexes were completed in addition to the FID experiments. […] The values of Ka and n for the compounds are listed in Table 4, where R^2 is the linear correlation coefficient for Ka.
The direct fluorescent measurements of DNA binding constants were also obtained with the same fluorimeter using 10 mm path length quartz cells. A 0.065 M stock solution of ctDNA was titrated into a 10 µM solution of CMCs 1–3 in a 40 mM K2HPO4/KH2PO, 10 mM KCl buffer at pH 7.0. The fluorescence was measured from 550 to 750 nm excited at 320 nm inverting 4 times and waiting 3 min between the addition of ctDNA and scan time to allow adequate time for the CMCs to interact with the DNA.

calf thymus DNA (ctDNA) [2] = assay: Fluorescent intercalator displacement (FID) assay, EtBr-saturated ctDNA; assay type: binding; parameters: Kq (bimolecular quenching constant) / KSV (Stern–Volmer quenching constant): unit not given here; conditions: buffer pH 7.0
Description: To investigate the potential mechanisms of action of complexes 1–3, fluorescent intercalator displacement (FID) experiments and DNA binding experiments utilizing the innate fluorescence were undertaken. For FID experiments, the concentration of a fluorescent intercalator, in this case ethidium bromide (EtBr), that is displaced by the complex under investigation is determined. In a solution of calf-thymus DNA (ctDNA) where is saturated with EtBr, the change in fluorescence is monitored as the complex is titrated into this solution. Once the decrease in fluorescence has stopped, the concentration of the complex allows us to calculate the stoichiometric point of binding, the change in fluorescence at the point of binding (ΔFsat), the binding coefficient (Ka), bimolecular quenching constant (Kq), Stern–Volmer quenching constant (Ksv), the binding constant for fluorescence (KF), and the molar equivalents of CMC (n) at the point of intersection is the experimental stoichiometry of binding. (1) [ctDNA]Tn−∆Fx/∆Fsat=[CMC] (2) ∆Fx/∆Fsat1/n=fraction of ctDNA−CMC complex (3) 1−∆Fx/∆Fsat1/n=fraction free CMC
The fluorescence at 601 nm for each titration was plotted, and the KF and n could be calculated from the intercept and slope, respectively. (4) F0/F=1+Kqτ0CMC=1+KSV[CMC] where F0 is the fluorescence of the binding site in the absence of quencher (CMC), F is the fluorescence of the site containing the CMC, and t0 is the lifetime of the chromophore in the absence of the quencher (Ɛ476 = 5680 for ethidium-bound DNA).
A plot of F0/F against [CMC] using experimental values allows for the determination of Kq and KSV from the slope. (5) log10F0−F/F=nlog10CMC+log10KF where n is the number of ethidium ligands that are displaced per CMC. […] A plot of log10[(F0 − F)/F)] against log10[CMC] is used to determine KF and n from the intercept and slope, respectively. Experiments were performed in triplicate for each CMC.
Fluorescent intercalator displacement (FID) assays were obtained using the same instrument and by using 10 mm quartz cells. Stock solutions CMCs 1–3 (30 µM) were titrated into a solution of […] ethidium bromide, 150 µM ctDNA in a 40 mM K2HPO4/KH2PO, and 10 mM KCl buffer at pH 7.0. The fluorescence was measured from 550 to 750 nm excited at 480 nm and inverting 4 times and waiting 3 min between the addition of ctDNA and scan time to allow adequate time for the CMCs to interact with the DNA.

ADDP Cis Res Ovarian = assay: MTT cytotoxicity ADDP; assay type: cell-based; conditions: read-out: GI50 Concentration That Inhibits Cell Growth by 50%, 72 h
Description: as §1

[3] = Lipophilicity by RP-HPLC (log Kw); assay type: physicochemical; conditions: isocratic 70 to 90% solvent B
Description: Lipophilicity was calculated using a RP-HPLC method to determine log Kw, whereby a stock solution was injected at different isocratic ratios ranging from 70 to 90% solvent B (organic) at a flow rate of 1 mL min^−1. These experiments were undertaken on an Agilent Technologies 1260 Infinity machine equipped with a Phenomenex Onyx™ Monolithic C18 reverse phase column (100 × 4.6 mm, 130 Å). The mobile phase comprised 0.06% TFA in water (solvent A) and 0.06% TFA in ACN:H2O (90:10, solvent B). The dead zero volume time was determined using potassium iodide as an external dead volume marker, further details are provided in the Supplementary Materials.

| Compound | GI50 (SJ-G2 Glioblastoma) | GI50 (A431 Skin) | GI50 (A2780 Ovarian) | GI50 (U87 Glioblastoma) | GI50 (Du145 Prostate) | GI50 (H460 Lung) | GI50 (BE2-C Neuroblastoma) | GI50 (MCF-7 Breast) | GI50 (MIA Pancreas) | GI50 (HT29 Colon) | GI50 (MCF10A Breast (normal)) | Ka (binding constant) (calf thymus DNA (ctDNA) [1]) | KSV (Stern–Volmer quenching constant) (calf thymus DNA (ctDNA) [2]) | Ka (binding coefficient) (calf thymus DNA (ctDNA) [2]) | Kf (binding constant for fluorescence) (calf thymus DNA (ctDNA) [2]) | Kq (bimolecular quenching constant) (calf thymus DNA (ctDNA) [2]) | Point of Experimental Stoichiometry of Binding (calf thymus DNA (ctDNA) [2]) | n (number of ethidium ligands displaced per CMC) (calf thymus DNA (ctDNA) [2]) | ΔFsat (change in fluorescence at the point of binding) (calf thymus DNA (ctDNA) [2]) | GI50 (ADDP Cis Res Ovarian) | also measured |
| --- | --- | --- | --- | --- | --- | --- | --- | --- | --- | --- | --- | --- | --- | --- | --- | --- | --- | --- | --- | --- | --- |
| N.N.[Cl][Pt][Cl] [Cisplatin, cisplatin, reference compound] | 0.4 ± 0.1 µM | 2.4 ± 0.3 µM | 1 ± 0.1 µM | 3.8 ± 1.1 µM | 1.2 ± 0.1 µM | 0.9 ± 0.2 µM | 1.9 ± 0.2 µM | 6.5 ± 0.8 µM | 7.5 ± 1.3 µM | 11.3 ± 1.9 µM | – | – | – | – | – | – | – | – | – | – | – |
| Cc1c(C)c2cccnc2c2ncccc12.N[C@H]1CCCC[C@@H]1N.[Pt] [Complex 56MESS, reference compound] | 0.074 ± 0.018 µM | 0.051 ± 0.021 µM | 0.03 ± 0.004 µM | 0.076 ± 0.014 µM | 0.007 ± 0.002 µM | 0.037 ± 0.009 µM | 0.1 ± 0.016 µM | 0.05 ± 0.02 µM | 0.015 ± 0.002 µM | – | 0.032 ± 0.007 µM | – | – | – | – | – | – | – | – | – | SI = GI50 for normal cells/GI50 for cancer cells (MCF10A/MCF-7) (MCF-7 Breast): 0.64 |
| [Pt(Bequ)( SSDACH)]+ [Complex 2a] | 13 ± 2.2 µM | 12 ± 2.4 µM | 18 ± 2.3 µM | 8.6 ± 1.1 µM | 26 ± 2 µM | 11 ± 1.5 µM | 23 ± 3.5 µM | 5.4 ± 1 µM | 20 ± 3 µM | 16 ± 1.3 µM | 20 ± 1 µM | 1.11 × 10^4 | 1.339 | 1.58 × 10^4 | 3.25 | 0.241 | 2.52 | 0.592 | 89.29 | 14 ± 0.3 µM | Lipophilicity × 10^−2 (log Kw) [3]: 2.06 ± 0.097 × 10^−2 |
| [Pt(Bequ)(RRDACH)]+ [Complex 2b] | 10 ± 2.2 µM | 3.4 ± 0.3 µM | 5 ± 0.3 µM | 4.3 ± 0.3 µM | 20 ± 2.7 µM | 8.1 ± 1 µM | 48 ± 1.7 µM | 7.7 ± 2 µM | 8.1 ± 1.6 µM | 30 ± 2.3 µM | 10.3 ± 1.9 µM | 1.39 × 10^4 | 1.662 | 1.59 × 10^4 | 3.78 | 0.271 | 2.47 | 0.668 | 89.01 | 19 ± 3 µM | Lipophilicity × 10^−2 (log Kw) [3]: 3.97 ± 0.053 × 10^−2; SI = GI50 for normal cells/GI50 for cancer cells (MCF10A/MCF-7) (MCF-7 Breast): 1.33 |
| [Pt(DiBequ)(RRDACH)]+ [Complex 3b] | 10.1 ± 2.6 µM | 3.9 ± 0.4 µM | 4.5 ± 0.3 µM | 4.1 ± 0.3 µM | 16 ± 1.5 µM | 8.2 ± 2.9 µM | 33 ± 1.2 µM | 4.2 ± 0.3 µM | 12.5 ± 2 µM | 16 ± 0.3 µM | 8.5 ± 1.4 µM | 3.68 × 10^4 | 1.727 | 3.98 × 10^4 | 4.22 | 0.297 | 2.62 | 0.757 | 82.38 | 6.9 ± 0.4 µM | Lipophilicity × 10^−2 (log Kw) [3]: 0.4 ± 0.029 × 10^−2 |
| [Pt(DiBequ)(SSDACH)]+ [Complex 3a] | 17 ± 0.6 µM | 14 ± 0.6 µM | 12 ± 0.9 µM | 16 ± 0.6 µM | 23 ± 2.1 µM | 16 ± 0.9 µM | 9 ± 1.3 µM | 15 ± 0.5 µM | 15 ± 0.7 µM | 16 µM | 16 ± 0.6 µM | 1.11 × 10^4 | 1.342 | 1.07 × 10^4 | 3.18 | 0.237 | 2.38 | 0.579 | 91.83 | 15 µM | Lipophilicity × 10^−2 (log Kw) [3]: 0.77 ± 0.032 × 10^−2; SI = GI50 for normal cells/GI50 for cancer cells (MCF10A/MCF-7) (MCF-7 Breast): 1.07 |
| [Pt(Pepy)(RRDACH)]+ [Complex 1b] | 20 ± 4.8 µM | 29 ± 2.6 µM | 31 ± 2.9 µM | 23 ± 2.2 µM | 41 ± 0.9 µM | 25 ± 2.9 µM | 38 ± 4.6 µM | 13 ± 1.7 µM | 41 ± 2 µM | 41 ± 2.7 µM | 32 ± 2.7 µM | 1.46 × 10^4 | 1.957 | 1.58 × 10^4 | 4.23 | 0.328 | 2.65 | 0.757 | 86.38 | 26 ± 0.6 µM | Lipophilicity × 10^−2 (log Kw) [3]: 1.52 ± 0.063 × 10^−2 |
| [Pt(Pepy)(SSDACH)]+ [Complex 1a] | 11 ± 0.7 µM | 4.2 ± 0.5 µM | 12 ± 0.7 µM | 5.3 ± 0.3 µM | 9 ± 2 µM | 5.8 ± 0.4 µM | 34 ± 7.5 µM | 8.4 ± 2 µM | 8 ± 1.6 µM | 13 ± 1 µM | 6.4 ± 0.5 µM | 2.20 × 10^4 | 1.988 | 2.75 × 10^4 | 4.35 | 0.329 | 2.84 | 0.778 | 83.82 | 5.1 ± 0.3 µM | SI = GI50 for normal cells/GI50 for cancer cells (MCF10A/MCF-7) (MCF-7 Breast): 0.76 |
